These results are taken from patent publication US20230365592A1 (Agios Pharmaceuticals, Inc., priority 2022, published 2023).

The assay has as its target T1, human PAH with the R408W mutation (Homo sapiens, UniProt P00439, R408W).
T1 construct: expressed in transfected cells
T1 sequence (P00439 1-452 R408W): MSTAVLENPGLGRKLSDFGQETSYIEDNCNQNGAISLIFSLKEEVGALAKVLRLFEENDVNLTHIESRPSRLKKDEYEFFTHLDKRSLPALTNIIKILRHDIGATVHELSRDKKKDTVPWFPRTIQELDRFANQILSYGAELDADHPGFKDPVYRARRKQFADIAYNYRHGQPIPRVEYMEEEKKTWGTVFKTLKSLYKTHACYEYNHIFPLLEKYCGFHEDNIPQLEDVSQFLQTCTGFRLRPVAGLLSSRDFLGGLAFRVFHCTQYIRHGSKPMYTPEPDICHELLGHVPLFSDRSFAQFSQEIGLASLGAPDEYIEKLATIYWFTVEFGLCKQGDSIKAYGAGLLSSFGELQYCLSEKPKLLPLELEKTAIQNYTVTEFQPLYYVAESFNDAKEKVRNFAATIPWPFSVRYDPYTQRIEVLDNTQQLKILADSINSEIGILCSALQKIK
As to the kind of experiment: Cell Based Phenylalanine Flux Assay.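 Also: after compound treatment, cells received sepiapterin plus isotope-labelled Phenylalanine for 4 hours, then labelled Tyrosine in the medium was quantified, 10-point 2-fold dilution series run in duplicate.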 The note with it: A375 cells expressing R408W PAH; 24 hrs with compound, then 20 µM sepiapterin and 800 µM 13C9,15N-Phenylalanine for 4 hours; 13C-Tyrosine by LC-MS; average where tested multiple times; read-out: AC50.

A word on the AC50: it is the concentration giving half of the maximal activity seen.

Bounds are passed on as bounds.

Turning to `Cc1c(C2c3nc[nH]c3CCN2C(=O)c2nnc(-c3ccn(C)n3)o2)nn2ccccc12` (centres unmarked) [listing 1 of 2 here], the AC50 is greater than 5 µM.

Turning to `Cc1ccn2nc(C3c4nc[nH]c4CCN3C(=O)c3nnc(-c4ccn(C)n4)o3)cc2c1` (centres unmarked) [listing 1 of 2 here], the AC50 was greater than 5 µM.

Turning to `Cc1ccn2nc(C3c4nc[nH]c4CCN3C(=O)c3nnc(-c4cnn(C)c4)o3)cc2c1` (centres unmarked) [listing 1 of 2 here], the AC50 is greater than 5 µM.

For the molecule `Cc1nc(-c2ccccn2)oc1C(=O)N1CCc2[nH]cnc2C1c1cc2ccccn2n1` (centres unmarked), the AC50 is greater than 5 µM.

For the molecule `Cc1cccn2nc(C3c4nc[nH]c4CCN3C(=O)c3nnc(-c4cncn4C)o3)cc12` (centres unmarked), the AC50 was 1 to 5 µM.

Regarding `Cc1c(C2c3nc[nH]c3CCN2C(=O)c2nnc(-c3ccn(C)n3)o2)nn2ccccc12` (centres unmarked) [listing 2 of 2 here], the AC50 lay in the range of 1 to 5 µM.

As to `Cc1ccn2nc(C3c4nc[nH]c4CCN3C(=O)c3nnc(-c4ccn(C)n4)o3)cc2c1` (centres unmarked) [listing 2 of 2 here], the AC50 lay in the range of 1 to 5 µM.

As to `Cc1c(C2c3nc[nH]c3CCN2C(=O)c2nnc(-c3cnn(C)c3)o2)nn2ccccc12` (centres unmarked), the AC50 fell in the range of 1 to 5 µM.

Consider `Cc1ccn2nc(C3c4nc[nH]c4CCN3C(=O)c3nnc(-c4cnn(C)c4)o3)cc2c1` (centres unmarked) [listing 2 of 2 here], for which the AC50 lay within 1 to 5 µM.

For `Cn1cncc1-c1nnc(C(=O)N2CCc3[nH]cnc3C2c2cc3c(F)cccn3n2)o1` (centres unmarked), the AC50 was in the range of 1 to 5 µM.

Turning to `Cc1cccn2nc(C3c4nc[nH]c4CCN3C(=O)c3oc(-c4ccccn4)nc3C(F)F)cc12` (centres unmarked), the AC50 was 1 to 5 µM.

On to `Cc1c(C2c3nc[nH]c3CCN2C(=O)c2nnc(-c3ccccn3)o2)nn2ccccc12` (centres unmarked), for which the AC50 is 1 to 5 µM.

Turning to `CC(C)(O)c1nnc(C(=O)N2CCc3[nH]cnc3C2c2cc3c(F)cccn3n2)o1` (centres unmarked), the AC50 is 1 to 5 µM.

As for `Cc1cccn2nc(C3c4nc[nH]c4CCN3C(=O)c3nnc(C(C)(C)O)o3)cc12` (centres unmarked), the concentration at half-maximal activity (AC50) lay within 1 to 5 µM.

Consider `CC(C)(O)c1ncc(C(=O)N2CCc3[nH]cnc3C2c2cc3ccccn3n2)o1` (centres unmarked), for which the AC50 lay within 1 to 5 µM.

On to `O=C(c1nnc(N2CCOCC2)o1)N1CCc2[nH]cnc2C1c1cc2c(F)cccn2n1` (centres unmarked), for which the AC50 lay within 1 to 5 µM.

Take `Cc1cccn2nc(C3c4nc[nH]c4CCN3C(=O)c3nnc(N4CCOCC4)o3)cc12` (centres unmarked): the AC50 was in the range of 1 to 5 µM.

For the molecule `Cn1cc(-c2nc(C(F)F)c(C(=O)N3CCc4[nH]cnc4C3c3cc4ccccn4n3)o2)cn1` (centres unmarked), the AC50 was 1 to 5 µM.

Regarding `Cn1ccc(-c2nc(C(F)F)c(C(=O)N3CCc4[nH]cnc4C3c3cc4ccccn4n3)o2)n1` (centres unmarked), the AC50 was greater than 5 µM.

In the case of `Cc1cccn2nc(C3c4nc[nH]c4CCN3C(=O)c3oc(-c4ccn(C)n4)nc3C(F)F)cc12` (centres unmarked), the AC50 lay within 1 to 5 µM.

Regarding `Cn1ccc(-c2nc(C(F)F)c(C(=O)N3CCc4[nH]cnc4C3c3cc4c(F)cccn4n3)o2)n1` (centres unmarked), the AC50 was greater than 5 µM.

`Cc1ccc2cc(C3c4nc[nH]c4CCN3C(=O)c3ocnc3C(F)F)nn2c1` (centres unmarked): the AC50 fell in the range of 1 to 5 µM.

With `Cc1nc(C(=O)N2CCc3[nH]cnc3C2c2cc3c(F)cccn3n2)n(C)n1` (centres unmarked), the AC50 lay within 1 to 5 µM.

For the molecule `Cc1cccc2cc([C@H]3c4nc[nH]c4CCN3C(=O)c3ncnn3C)nn12` (single isomer, unassigned), the AC50 was greater than 5 µM.

As to `Cn1cc(-c2ccc3c(C(=O)N4CCc5[nH]cnc5[C@@H]4c4cc5ccccn5n4)cnn3c2)cn1` (single isomer, unassigned), the AC50 lay in the range of 1 to 5 µM.

Consider `O=C(c1nnc(C2CC(F)(F)C2)o1)N1CCc2[nH]cnc2[C@@H]1c1cc2cccc(C(F)F)n2n1` (single isomer, unassigned), for which the AC50 is greater than 5 µM.

On to `Cn1cc(-c2nnc(C(=O)N3CCc4[nH]cnc4[C@@H]3c3cc4cc(F)ccn4n3)o2)cn1` (single isomer, unassigned), for which the AC50 lay within 1 to 5 µM.

Turning to `Cc1nc(C(C)(C)O)oc1C(=O)N1CCc2[nH]cnc2[C@@H]1c1cc2cccc(C(F)(F)F)n2n1` (single isomer, unassigned), the AC50 fell in the range of 1 to 5 µM.

Regarding `CC(C)c1nnc(C(=O)N2CCc3[nH]cnc3[C@@H]2c2cc3cccc(C(F)(F)F)n3n2)o1` (single isomer, unassigned), the AC50 lay in the range of 1 to 5 µM.

As to `Cc1nnc(C(=O)N2CCc3[nH]cnc3[C@@H]2c2cc3cccc(C(F)(F)F)n3n2)o1` (single isomer, unassigned), the AC50 fell in the range of 1 to 5 µM.

With `COc1cccn2nc([C@H]3c4nc[nH]c4CCN3C(=O)c3cc(C(C)(C)C)nn3C)cc12` (single isomer, unassigned), the AC50 is greater than 5 µM.

On to `Cc1ccn2nc([C@@H]3c4nc[nH]c4CCN3C(=O)c3ccnn3C(F)F)cc2c1` (single isomer, unassigned), for which the AC50 lay within 1 to 5 µM.

In the case of `Cc1c([C@@H]2c3nc[nH]c3CCN2C(=O)c2nnc(-c3cnn(C)c3C)o2)nn2ccccc12` (single isomer, unassigned), the AC50 was in the range of 1 to 5 µM.

For the molecule `CC(C)(F)c1nnc(C(=O)N2CCc3[nH]cnc3[C@H]2c2cc3cc(C(F)(F)F)ccn3n2)o1` (single isomer, unassigned), the AC50 was 1 to 5 µM.

`CC(C)(F)c1nnc(C(=O)N2CCc3[nH]cnc3C2c2cc3cc(F)ccn3n2)o1` (single isomer, unassigned): the AC50 is 1 to 5 µM.

On to `O=C(c1nnc(C2CC(F)(F)C2)o1)N1CCc2[nH]cnc2[C@H]1c1cc2cccc(F)n2n1` (single isomer, unassigned), for which the AC50 was 1 to 5 µM.

Regarding `Cn1cc(-c2nnc(N3CCc4[nH]cnc4[C@H]3c3cc4c(F)cccn4n3)o2)cn1` (single isomer, unassigned), the AC50 is 1 to 5 µM.

For the molecule `Cc1nnc(N2CCc3[nH]cnc3[C@H]2c2cc3c(F)cccn3n2)o1` (single isomer, unassigned), the concentration at half-maximal activity (AC50) was in the range of 1 to 5 µM.

Consider `Cc1nnc(C(=O)N2CCc3[nH]cnc3[C@H]2c2cc3ccc(F)cn3n2)o1` (single isomer, unassigned), for which the AC50 lay in the range of 1 to 5 µM.

On to `Cc1nnc(C(=O)N2CCc3[nH]cnc3[C@H]2c2cc3cccc(C(F)F)n3n2)o1` (single isomer, unassigned), for which the AC50 was 1 to 5 µM.

Regarding `Cn1cnc(-c2nnc(C(=O)N3CCc4[nH]cnc4[C@H]3c3cc4cccc(C(F)F)n4n3)o2)c1` (single isomer, unassigned), the AC50 lay within 1 to 5 µM.

In the case of `O=C(c1oc(-c2ccccn2)nc1C1CC1)N1CCCc2[nH]cnc2[C@H]1c1cc2ccccn2n1` (single isomer, unassigned), the AC50 was in the range of 1 to 5 µM.

Turning to `COc1cccn2nc([C@@H]3c4nc[nH]c4CCN3C(=O)c3nnc(C(C)(C)O)o3)cc12` (single isomer, unassigned), the AC50 was greater than 5 µM.

As for `CC(C)(O)c1ncc(C(=O)N2CCc3[nH]cnc3[C@H]2c2cc3cccc(Cl)n3n2)o1` (single isomer, unassigned), the AC50 was 1 to 5 µM.

For the molecule `Cc1cccc2cc([C@@H]3c4nc[nH]c4CCN3C(=O)c3cnc(C(C)(C)O)o3)nn12` (single isomer, unassigned), the AC50 was 1 to 5 µM.

Regarding `c1ccn2nc([C@H]3NCCc4ncn(-c5nnc(C6CC6)o5)c43)cc2c1` (single isomer, unassigned), the AC50 is 1 to 5 µM.

As to `c1ccn2nc([C@@H]3c4nc[nH]c4CCN3c3nnc(N4CCOCC4)o3)cc2c1` (single isomer, unassigned), the AC50 is greater than 5 µM.

With `COCc1ccc2c(C(=O)N3CCc4[nH]cnc4[C@H]3c3cc4cccc(F)n4n3)cnn2c1` (single isomer, unassigned), the AC50 was 1 to 5 µM.

Turning to `O=C(c1cnco1)N1CCc2[nH]cnc2[C@H]1c1cc2ccc(F)cn2n1` (single isomer, unassigned), the AC50 lay within 1 to 5 µM.

With `Cc1nc([C@H](C)O)oc1C(=O)N1CCc2[nH]cnc2[C@H]1c1cc2cccc(C)n2n1` (single isomer, unassigned), the AC50 was in the range of 1 to 5 µM.
